Measured values: US20030032587A1, “Urocortin peptides” (The Salk Institute for Biological Studies, priority 1995, published 2003)
Where two headings read alike, the source gives them in different places. Each block holds one molecule with its values, some of them ahead of it. Where no end group is shown, it is not given here.

Tests used:
human CRF-R2β = experiment: competitive displacement binding assay, CRF-R2β stably expressed in CHO cells; conditions: read-out: Ki (95% confidence limits); CRF-R2β in stably transfected CHO cells; displacement of [125I-Tyr0]Ucn
Method: Binding assays with cells expressing human CRF-R1 are carried out as described in the Chen et al. P.N.A.S., supra. The affinities of test peptides for CRF-R1 and CRF-R2β stably expressed in CHO cells were determined by competitive displacement of ^125I-(Nle^21, Tyr^32) ovine CRF (for CRF-R1) or of [^125II-Tyr^∘]Ucn (for CRF-R2β) as described.

[1] = tested on: primary murine anterior pituitary cells; assay type: cell-based; conditions: for EC50: read-out: EC50, secretion of ACTH
Description: A straightforward assay using rat anterior pituitary cells in monolayer culture can be carried out to determine whether a candidate peptide thereof will function as a CRF agonist and stimulate ACTH secretion by activating CRF receptors on such cells. The procedure which is used is that generally set forth in Endocrinology, 91, supra. A very similar assay is used to test for antagonistic properties, using a challenge dose of oCRF or the like.
To test the ability of purified Ucn or another candidate Ucn-like peptide to function as a CRF agonist and to promote ACTH production and/or secretion, cultures of dispersed primary murine anterior pituitary cells (0.15×10^6 cells/well are used), as generally described in Vale et al. Meth. Enzym., 103, 565-577 (1983), and in Endocrinology, 91, 562 (1972). These cultures are maintained in 0.5 ml/well of β-PJ (a reagent available from Kansas City Biochemicals) containing 2% fetal bovine serum. On the morning of culture day 5, the cells are washed 3 times with β-PJ containing 0.1% bovine serum albumin and then incubated for 1 hour at 37° C. in the same medium. The medium is then replaced with Ucn, or an analog thereof, diluted in β-PJ containing 0.1% bovine serum albumin. Incubations are terminated after 3 hours, at which time the medium is removed and stored at −20° C. until ACTH radioimmunoassays are performed using a suitable kit, such as that commercially available from Diagnostic Products Corporation of Los Angeles, Calif. Secreted ACTH is measured using Allfit computer program with results expressed as the average±s.e.m. of 3 replicate bioassays.

rats [2] = experiment: ACTH secretion in vivo, ACTH level in plasma; conditions: for ACTH level in plasma: at 30 minutes
rats [3] = experiment: fall in mean arterial blood pressure after peripheral (iv) administration; assay type: in vivo
[4] = biological target: T1, human CRF binding protein (hCRF-BP) (Homo sapiens, UniProt P24387); experiment: competitive hCRF-BP ligand binding assay; conditions: radioligand 125I[Nle21,Tyr32]-oCRF
T1 construct: made in house; host or cells: recombinant CHO cells, conditioned medium
T1 sequence (P24387 25-322): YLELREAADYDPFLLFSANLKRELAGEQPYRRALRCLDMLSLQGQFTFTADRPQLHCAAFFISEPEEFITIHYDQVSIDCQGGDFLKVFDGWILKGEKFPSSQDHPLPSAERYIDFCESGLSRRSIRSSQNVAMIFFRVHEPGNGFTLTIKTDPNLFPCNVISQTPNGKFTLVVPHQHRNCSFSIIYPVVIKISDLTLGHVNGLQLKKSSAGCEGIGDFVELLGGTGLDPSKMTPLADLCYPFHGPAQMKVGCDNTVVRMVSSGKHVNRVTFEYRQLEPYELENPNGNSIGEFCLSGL

murine CRF-R2β = biological target: T2, murine CRF-R2β (Mus musculus, UniProt Q60748); experiment: elevation of intracellular cAMP in cells expressing mCRF-R2β; assay type: cell-based; conditions: read-out: ED50, elevation of cAMP
T2 construct: expressed in transfected cells
Description: CRF-R is used to refer to a family of receptor protein subtypes which participate in the G-protein-coupled response of cells to CRF and Ucn-like ligands. CRF-Rs are coupled by heterotrimeric G-proteins to various intracellular enzymes, ion channels, and transporters. The G-proteins associate with the receptor proteins at the intracellular face of the plasma membrane. An agonist binding to a CRF-R catalyzes the exchanges of GTP for GDP on the α-subunit (G-protein “activation”), resulting in its dissociation and stimulation of one (or more) of the various signal-transducing enzymes and channels. G-protein preferentially stimulates particular effectors, and the specificity of signal transduction may be determined, therefore, by the specificity of G-protein/receptor interaction. CRF-R proteins mediate signal transduction through the modulation of adenylate cyclase and perhaps through PI turnover. For example, when CRF or Ucn binds to and activates the CRF-R, adenylate cyclase causes an elevation in the level of intracellular cAMP. […] Such transformed cells are monitored for either an increase or decrease in the level of intracellular CAMP which provides a determination of the effectiveness of the potential agonist or antagonist. Methods for measuring intracellular levels of cAMP, or measuring cyclase activity, are well known in the art.

[5] = biological target: CRF receptors on anterior pituitary cells in culture; experiment: cell-based or functional assay
[6] = biological target: human CRF-R2β, stably transfected CHO cells (human) (UniProt Q13324); experiment: competitive displacement of [125I-Tyr0]Ucn from stably transfected CHO cells expressing human CRF-R2β; 95% confidence limits in brackets
[7] = biological target: T3, human CRF binding protein (human, UniProt P24387 25-322); experiment: competitive hCRF-BP ligand binding assay with 125I[Nle21,Tyr32]-oCRF
T3 construct: also called hCRF-BP; CRF-BP
T3 sequence (looked up): T1 sequence (P24387 25-322)

[8] = biological target: CRF receptors on anterior pituitary cells in culture; experiment: cell-based or functional assay; remark: listed apart in the source
[9] = biological target: T3, human CRF binding protein; experiment: competitive hCRF-BP ligand binding assay with [125I-DTyr0]hCRF; reference peptide
Method: After incubating with the primary and secondary antisera for 30 minutes each, 1 ml of saline wash is added, and the test tubes are centrifuged at 2000× g for 20 minutes at 4° C. Precipitates are counted in a gamma counter. Inhibitory binding affinity constant (Kᵢ) values are determined using parameters calculated by the LIGAND computer program, Munson et al., Anal. Biochem., 107, 220 (1980), and a Vax/VMS computer system.

T2 sequence (Q60748 1-431 isoform Q60748-2): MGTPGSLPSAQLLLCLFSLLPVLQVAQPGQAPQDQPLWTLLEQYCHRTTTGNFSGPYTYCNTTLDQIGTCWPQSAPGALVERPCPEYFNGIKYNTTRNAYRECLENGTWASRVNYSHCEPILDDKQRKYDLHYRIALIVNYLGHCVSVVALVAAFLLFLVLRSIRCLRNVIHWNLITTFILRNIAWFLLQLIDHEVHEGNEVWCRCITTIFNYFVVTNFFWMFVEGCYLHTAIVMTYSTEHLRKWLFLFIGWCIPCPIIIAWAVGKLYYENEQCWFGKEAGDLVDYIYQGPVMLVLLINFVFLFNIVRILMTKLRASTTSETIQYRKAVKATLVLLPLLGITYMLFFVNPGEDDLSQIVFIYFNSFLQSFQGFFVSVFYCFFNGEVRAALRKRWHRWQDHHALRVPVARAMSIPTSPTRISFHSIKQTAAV

Molecule: CC[C@H](C)[C@H](NC(=O)[C@@H](NC(=O)[C@H](CC(=O)O)NC(=O)[C@H](CC(C)C)NC(=O)[C@H](CC(C)C)NC(=O)[C@H](CC(C)C)NC(=O)[C@H](CCCNC(=N)N)NC(=O)[C@H](CC(N)=O)NC(=O)[C@H](CC(N)=O)NC(=O)[C@H](C)NC(=O)[C@H](C)NC(=O)[C@H](CCC(N)=O)NC(=O)[C@H](CCC(N)=O)NC(=O)[C@H](CCCCN)NC(=O)[C@H](CCC(=O)O)NC(=O)[C@H](CCCCN)NC(=O)[C@H](CCC(=O)O)NC(=O)[C@H](CCC(N)=O)NC(=O)[C@H](CCCCN)NC(=O)[C@H](CCC(=O)O)NC(=O)[C@@H](NC(=O)[C@H](CCC(=O)O)NC(=O)[C@@H](NC(=O)[C@H](CCSC)NC(=O)[C@H](CCCCN)NC(=O)[C@H](CCCNC(=N)N)NC(=O)[C@H](CC(C)C)NC(=O)[C@H](CC(C)C)NC(=O)[C@H](CCC(=O)O)NC(=O)[C@H](CC(C)C)NC(=O)[C@H](CO)NC(=O)[C@H](CC(C)C)NC(=O)[C@H](CC(=O)O)NC(=O)[C@@H](NC(=O)[C@H](CO)NC(=O)[C@@H](NC(=O)[C@@H]1CCCN1C(=O)[C@@H]1CCCN1C(=O)CNC(=O)[C@@H]1CCC(=O)N1)[C@@H](C)CC)[C@@H](C)CC)[C@@H](C)CC)[C@@H](C)CC)[C@@H](C)O)C(N)=O [sauvagine, reference compound]
Ki (human CRF-R2β): 2 nM | EC50 ([1]; cultured rodent pituitary cells, incubation 3 hours, average±s.e.m.): ~0.033 nM

Molecule: CC[C@H](C)[C@H](NC(=O)[C@@H](NC(=O)[C@H](CCC(=O)O)NC(=O)[C@H](CCSC)NC(=O)[C@H](CC(C)C)NC(=O)[C@H](CCCCN)NC(=O)[C@H](CCCNC(=N)N)NC(=O)[C@H](CC(N)=O)NC(=O)[C@H](CO)NC(=O)[C@H](Cc1c[nH]cn1)NC(=O)[C@H](C)NC(=O)[C@H](CCC(N)=O)NC(=O)[C@H](CCC(N)=O)NC(=O)[C@H](C)NC(=O)[C@H](CC(C)C)NC(=O)[C@H](CCC(N)=O)NC(=O)[C@H](CCC(=O)O)NC(=O)[C@H](C)NC(=O)[C@H](CCCNC(=N)N)NC(=O)[C@H](C)NC(=O)[C@H](CCSC)NC(=O)[C@H](CCC(=O)O)NC(=O)[C@H](CC(C)C)NC(=O)[C@@H](NC(=O)[C@H](CCC(=O)O)NC(=O)[C@H](CCCNC(=N)N)NC(=O)[C@H](CC(C)C)NC(=O)[C@H](CC(C)C)NC(=O)[C@H](Cc1c[nH]cn1)NC(=O)[C@H](Cc1ccccc1)NC(=O)[C@@H](NC(=O)[C@H](CC(C)C)NC(=O)[C@H](CC(=O)O)NC(=O)[C@H](CC(C)C)NC(=O)[C@H](CO)NC(=O)[C@@H](NC(=O)[C@@H]1CCCN1C(=O)[C@@H]1CCCN1C(=O)[C@H](CCC(=O)O)NC(=O)[C@H](CCC(=O)O)NC(=O)[C@@H](N)CO)[C@@H](C)CC)[C@@H](C)O)C(C)C)[C@@H](C)CC)C(N)=O [r/hCRF, reference compound]
ACTH level in plasma (rats [2]; 5 μg/kg dose): 422 ± 66 pg/mL

binds hCRF-BP more strongly than r/hCRF, factor [4]: about 2 | EC50 (murine CRF-R2β): 0.18 ± 0.04 nM
Molecule: CC[C@H](C)[C@H](NC(=O)[C@H](CO)NC(=O)[C@H](CC(C)C)NC(=O)[C@@H]1CCCN1C(=O)[C@@H]1CCCN1C(=O)[C@H](CC(=O)O)NC(=O)[C@@H](N)CC(=O)O)C(=O)N[C@@H](CC(=O)O)C(=O)N[C@@H](CC(C)C)C(=O)N[C@H](C(=O)N[C@@H](Cc1ccccc1)C(=O)N[C@@H](Cc1c[nH]cn1)C(=O)N[C@@H](CC(C)C)C(=O)N[C@@H](CC(C)C)C(=O)N[C@@H](CCCNC(=N)N)C(=O)N[C@H](C(=O)N[C@@H](CC(C)C)C(=O)N[C@@H](CC(C)C)C(=O)N[C@@H](CCC(=O)O)C(=O)N[C@@H](CC(C)C)C(=O)N[C@@H](C)C(=O)N[C@@H](CCCNC(=N)N)C(=O)N[C@H](C(=O)N[C@@H](CCC(N)=O)C(=O)N[C@@H](CO)C(=O)N[C@@H](CCC(N)=O)C(=O)N[C@@H](CCCNC(=N)N)C(=O)N[C@@H](CCC(=O)O)C(=O)N[C@@H](CCCNC(=N)N)C(=O)N[C@@H](C)C(=O)N[C@@H](CCC(=O)O)C(=O)N[C@@H](CCC(N)=O)C(=O)N[C@@H](CC(N)=O)C(=O)N[C@@H](CCCNC(=N)N)C(=O)N[C@H](C(=O)N[C@H](C(=O)N[C@@H](Cc1ccccc1)C(=O)N[C@@H](CC(=O)O)C(=O)N[C@@H](CO)C(=O)N[C@H](C(N)=O)C(C)C)[C@@H](C)CC)[C@@H](C)CC)[C@@H](C)O)[C@@H](C)O)[C@@H](C)O [rUcn]
Ki (human CRF-R2β): 0.41 nM | fall in mean arterial blood pressure (rats [3]; administered peripherally, e.g. iv, dose as low as 250 ng for a rat of about 250 to 275 grams): marked fall | lowers blood pressure, times as much as either sfUI or r/hCRF (rats [3]; dose of about 3.77 μg/kg): 2-3 times | ACTH level in plasma (rats [2]; 1 μg/kg dose): 659 ± 53 pg/mL | ACTH level in plasma, effect compared with r/hCRF (rats [2]; at 1 hour and at 2 hours): greater effect continues | biopotency for ACTH secretion compared with oCRF ([1]; cultured rodent pituitary cells): more potent than oCRF | stimulates the secretion of ACTH and β-END-LI (β-endorphin) ([1]; result in words): strongly stimulates | binding to hCRF-BP compared with sauvagine and sfUI [4]: much more strongly than does sauvagine, but less strongly than sfUI

EC50 ([1]; cultured rodent pituitary cells, no unit printed for this value): 0.017 ± 0.003 nM | EC50 (murine CRF-R2β): 0.74 nM
Molecule: H-NDDPPISIDLTFHLLRNMIEMARIENEREQAGLNRKYLDEV-NH2 [sfUI, reference compound]
Ki (human CRF-R2β): 3 nM

ACTH secretion, anterior pituitary cell cultures, potency relative to r/hCRF [5]: 2.2 times r/hCRF
Molecule: [Tyr0]rUcn(1-40) (peptide)

Ki [6]: 0.41 nM
Molecule: rat urocortin (rat Ucn) (peptide)

binding result [7]: binds | EC50, secretion of ACTH in cultured rodent pituitary cells [8]: 0.043 nM
Molecule: SEEPPISLDLTFHLLREVLEMARAEQLAQQAHSNRKLMEII-NH2 (also called r/hCRF; rCRF) [rat/human CRF]

binding result [9]: binds
Molecule: DLTFHLLREVLEMARAEQLAQQAHS [hCRF(9-33)]
